This note sets out measurements from a melting point compilation (Tetko et al.; mined from patent text by program, amines drawn as free bases though some values may be those of a salt).

Usually melting point stands for the temperature of the solid-liquid transition. `CC(=O)n1nc(-c2c(C)cc(C)c(N)c2C)n2nc(C(C)(C)C)cc12` had a melting point of 206 to 207 °C.

The molecule `CC(C)NN(C[C@@H](O)[C@H](Cc1ccccc1)NC(=O)OCc1ccccc1)C(=O)OC(C)(C)C` yielded a melting point of 118 to 120 °C.

`CCOC(=O)C1CC2CC(=O)CCC2CN1C(=O)OC` (stereo not drawn) showed a melting point of 79 to 80 °C.

Regarding `COc1ccc(C(=O)O)c(Sc2ccc(SC)cc2)c1`, the melting point lay in the range of 202 to 203 °C.

As to `COC(=O)[C@H](Cc1ccc([N+](=O)[O-])cc1)NC(=O)c1ccccc1F`, the melting point fell in the range of 137 to 139 °C.

In turn, `CC(C)Nc1nc(Cl)nc(Cl)c1[N+](=O)[O-]` displayed a melting point of 65 °C.

`O=C(NCC12CC3CC(CC(C3)C1)C2)c1cc(-c2ncccc2C(=O)O)ccc1Cl` returned a melting point of 169 to 172 °C.

As for `Cc1ccc(C(C#N)Nc2ccc(S(C)(=O)=O)cc2)cc1` (stereo not drawn), the melting point is 158 to 160 °C.

With `CCCCCCCCCCCCOC(=O)c1ccc2cc(O)ccc2c1`, the melting point was 103 to 104 °C.

`CC1(C)COS(=O)Oc2ccc(C#N)cc21` (stereo not drawn) gave a melting point of 87 to 88 °C.

Consider `Nc1cc(C(=O)O)cc(S(N)(=O)=O)c1Oc1ccc(OCc2ccccc2)cc1`, for which the melting point fell in the range of 264 to 265 °C.

For the molecule `COc1cc(N2CCN(C[C@H](C)O)CC2)c(F)cc1Nc1ncc2ccc(-c3ccccc3N(C)S(C)(=O)=O)n2n1`, the melting point was 116 to 120 °C.

On to `CC(C)(O)c1ccc(CCl)cc1`, for which the melting point lay in the range of 101 to 103 °C.

The molecule `COc1ccc(S(=O)(=O)N2c3cc(F)ccc3-c3ccc(F)cc3C2C)c(OC)c1` (stereo not drawn) registered a melting point of 112 to 115 °C.

As for `CCOc1cc(C=[N+]([O-])C2CCC2)ccc1OC`, the melting point was 113 °C.

Molecule `O=c1c(Br)c(OCc2ccccc2)ccn1CCc1cccs1` gave a melting point of 128 to 130 °C.

The molecule `COc1ccc(CNc2nc(Cl)ccc2C(=O)O)cc1Cl` came in with a melting point of 184 to 186 °C.

For `N#CC(C(=O)Nc1cccc(F)c1)C(=O)c1nn(-c2ccccc2)c2c1Cc1ccccc1-2` (stereo not drawn), the melting point lay within 278 to 284 °C.

`COc1ccccc1SCCCCCCCCCC(=O)O` returned a melting point of 65 to 66 °C.

For `CCC1(O)CC(OC2CC(N(C)C)C(OC3CC(O)C(O)C(C)O3)C(C)O2)c2c(cc3c(c2O)C(=O)c2c(O)ccc(O)c2C3=O)C1C(=O)OC` (stereo not drawn), the melting point was 162 to 163 °C.

The molecule `CCOC(=O)c1cc(CN)c[nH]1` yielded a melting point of 78 to 79 °C.

Molecule `CC(Oc1ncn(-c2ccc(OC(F)(F)F)cc2)n1)C(=O)O` (stereo not drawn) displayed a melting point of 200 to 203 °C.

`Fc1ccc(-c2ccn(C3CCNC3)c2-c2ccncc2)cc1` (stereo not drawn): the melting point lay in the range of 145 to 147 °C.

In the case of `CN(C)C(=O)C1CC(c2ccc(-c3ccc(N4C[C@H](Cn5ccnn5)OC4=O)cc3F)cn2)=NO1` (stereo partly drawn), the melting point lay in the range of 180 to 190 °C.

`CCOC(=O)Cc1ccc2c(c1)NC(NC(C)C)=NS2(=O)=O` showed a melting point of 182 to 184 °C.

In the case of `O=C(O)c1cn(C2CC2)c2c(F)c(N3CCC(n4cncn4)C3)c(F)cc2c1=O` (stereo not drawn), the melting point is 220 to 221 °C.

In the case of `CCCCCCc1ccc(OCCCCCCCCCCCCCCCC(=O)NCCO)cc1O`, the melting point was found to be 96.4 °C.

As to `COC(=O)c1ccc(Cn2nc(OC)c3ccc(N)cc32)c(OC)c1`, the melting point lay within 188 to 193 °C.

The molecule `CNC(=O)c1ccc2ccccc2c1` yielded a melting point of 108 to 109 °C.

In turn, `Fc1cccc(OC2CN(C3CCC(c4c[nH]c5ccccc45)CC3)C2)c1` (stereo not drawn) returned a melting point of 114 to 117 °C.

As for `Clc1cc(-c2ccncc2)ccn1`, the melting point was 193 to 196 °C.

In turn, `COc1cc2ncc(C#N)c(Nc3ccc(O)cc3O)c2cc1OC` displayed a melting point greater than 250 °C.

Molecule `NC(=O)N(O)Cc1ccc(C(O)C#Cc2ccsc2)cc1` (stereo not drawn) had a melting point of 117 to 119 °C.

`Cc1cc(C2(C(F)(F)F)CC(c3ccc(S(C)=O)cc3)=NO2)ccc1NC(=O)OC(C)(C)C` (stereo not drawn) gave a melting point of 76.5 to 88.5 °C.

Turning to `CN1CC[C@@H](c2c(O)cc(O)c3c(=O)cc(-c4cccnc4Cl)oc23)[C@@H]1CO`, the melting point was 125 to 127 °C.

In the case of `COC1CC(OCc2ccccc2)C(OS(=O)(=O)c2ccc(C)cc2)C(COC(c2ccccc2)(c2ccccc2)c2ccccc2)O1` (stereo not drawn), the melting point was in the range of 94 to 97 °C.

Regarding `COC(=O)c1cnc(C(=O)OC)c2ccccc12`, the melting point fell in the range of 69 to 70 °C.

Regarding `CCC(=C(c1ccccc1)c1ccc(C2CC2C(=O)N(CC)CC)cc1)c1ccccc1` (stereo not drawn), the melting point lay in the range of 42 to 44 °C.

In the case of `COc1ccc(-n2nc(OC)cc2-c2ccc(OCCNC(N)=S)cc2)cc1`, the melting point turned out to be 142 °C.

As to `COc1cc(OC)c(C2=CCCCC2)c(OC)c1`, the melting point came to 127 °C.

`CC(C)(C)n1ncc(C(N)=O)c1N`: the melting point lay in the range of 193 to 195 °C.

As for `CCCCCC(C(=O)O)c1cccc(Oc2ccccc2C)c1O` (stereo not drawn), the melting point is 113 to 114 °C.

Take `CC(C)(c1ccccc1)c1ccc(O)c(-n2nc3ccccc3n2)c1`: the melting point lay in the range of 119 to 121 °C.

In turn, `O=C1c2ccccc2CS(=O)(=O)N1CCC(c1ccccc1)N1CCOCC1` (stereo not drawn) showed a melting point of 130 °C.

Regarding `Nc1ccc([N+](=O)[O-])cc1OCCO`, the melting point was in the range of 140 to 142 °C.

In turn, `Cc1cc2c3c(ccc2cc1C(=O)c1ccc(Cl)cc1)OC(=O)C3(C)C` had a melting point of 130 to 132 °C.

`CCOC(=O)c1cn2c(Cl)cccc2n1` displayed a melting point of 143 to 145 °C.

Molecule `O=S(=O)(CF)c1ccc(C2=C(c3ccc(F)cc3)CCC2)cc1` registered a melting point of 123 to 124 °C.

Take `Cc1ccc(-c2c3c(cc4ccc(O)cc24)-c2ccc(O)cc2CO3)cc1F`: the melting point was 238 to 240 °C.

For the molecule `[N-]=[N+]=NC1(O)CC(n2cc(I)c(=O)[nH]c2=O)OC1CO` (stereo not drawn), the melting point was 126 to 130 °C.

Consider `CCOC(=O)CCC(=O)c1ccc(CCNS(=O)(=O)c2cccc(Cl)c2)cc1`, for which the melting point is 64 to 66 °C.

`C=C1C(=O)N(C)CCC1(CC(=O)OC)c1cccc(OC)c1` (stereo not drawn) displayed a melting point of 85 to 86 °C.

The molecule `NS(=O)(=O)c1ccc(-n2nc(C(F)(F)F)c(Cl)c2-c2ccc(Cl)cc2)cc1` had a melting point of 180 to 182 °C.

Consider `CCn1cc(C(=O)O)c(=O)c2cc(F)c(-c3ccnc(N)n3)cc21`, for which the melting point lay in the range of 245 to 247 °C.

`COP(=O)(OC)C(O)=Cc1ccc(Cl)cc1` displayed a melting point of 89 to 92 °C.

With `c1ccc(C2=NN=C(c3ccccc3)NN2)cc1`, the melting point fell in the range of 177 to 178 °C.

In the case of `COP(=O)(Nc1ccc([N+](=O)[O-])c(NCCc2ccccc2)c1)OC`, the melting point worked out at 128 °C.

With `Cc1ccc2c(c1)C(O)(c1ccc3c(c1)OCO3)C(=O)N2Cc1ccc(Cl)cc1` (stereo not drawn), the melting point was in the range of 122 to 124 °C.

Molecule `C=CCn1c(=O)c2ccccc2n2c(CCCl)nnc12` came in with a melting point of 142 to 144 °C.

`C[C@H](C=C[C@H](C)[C@H](C)CO)[C@H]1CC[C@H]2C3=CCC4CC(=O)CC[C@]4(C)[C@H]3CC[C@]12C` (stereo partly drawn) returned a melting point of 192 to 193 °C.

Turning to `O=C1Nc2cc(Cl)cc(Cl)c2C1c1cc(Cl)ccc1O` (stereo not drawn), the melting point lay in the range of 238 to 240 °C.

Molecule `NC(C(=O)O)c1ccc(C(=O)O)cc1SCCc1ccccc1` (stereo not drawn) showed a melting point of 227 to 231 °C.

`CC12CCC(O)CC1=CCC1C2CCC2(C)C(=C(C#N)CC(=O)O)CCC12` (stereo not drawn) yielded a melting point of 245 to 250 °C.

The molecule `COc1nc(NC(=O)NS(=O)(=O)c2cc(Cl)ccc2C(=O)OC(C)C)nc(C(F)(F)F)n1` showed a melting point of 160 to 163 °C.

As to `Cc1ccccc1C(CCC(=O)O)Oc1cc(OCc2ccsc2)ccc1-c1nc(C(=O)O)co1` (racemic), the melting point was 178 to 179 °C.

In the case of `Cc1nnc2n1-c1ccc(Br)cc1C(c1ccccc1)=NC2`, the melting point fell in the range of 268 to 270 °C.

As for `CSc1ccc(-c2nn(CC3CC3)c(=S)cc2-c2ccc(Cl)cc2)cc1`, the melting point is 135 °C.

For the molecule `Cn1nnnc1S(=O)(=O)CCCCS(=O)(=O)c1nnnn1C`, the melting point was 192 to 194 °C.

Take `CSc1ncnn1C[C@]1(c2ccc(F)c(F)c2)O[C@@H]1c1ccccc1C(F)(F)F` (relative stereo): the melting point was in the range of 83 to 85 °C.

`CC(=O)OC1C=C(C)C(=O)CC(C)(C)C1OC(=O)c1ccccc1` (stereo not drawn) had a melting point of 86 to 87 °C.

Regarding `CC1=CC2(C=CC1(C)C(Cl)(Cl)Cl)SCC(C(C)(C)C)CS2` (stereo not drawn), the melting point is 141 to 143 °C.

For `CC(C)Cn1c(CCl)c(-c2ccccc2)c2cc(Br)ccc2c1=O`, the melting point was 145 to 146 °C.

In the case of `CNC(=O)CN1CCc2cc(Nc3ncc(Cl)c(Nc4ccccc4C(=O)NC)n3)c(OC)cc2CC1`, the melting point fell in the range of 200 to 216 °C.

In the case of `CCOc1cc(OCc2cn(-c3ccc(C(F)(F)F)cn3)nc2C)ccc1CCC(=O)O`, the melting point was in the range of 151 to 152 °C.

`CS(=O)c1n[nH]c(-c2cc(C(C)(C)C)c(O)c(C(C)(C)C)c2)n1` (stereo not drawn) showed a melting point of 135 to 145 °C.

In turn, `CCOC(=O)C1=CC(CF)(CF)Oc2ccc([N+](=O)[O-])cc21` had a melting point of 96 to 98 °C.

`Cc1c(C(F)(F)F)nc2c(C(F)(F)F)cccc2c1Br` gave a melting point of 81.9 to 82.3 °C.

Consider `c1ccc2c(c1)OC[C@H](CN1CCC(CNc3nc4cccnc4s3)CC1)O2`, for which the melting point was determined as 160 °C.

In turn, `CN1CCN(c2cccc3c2C[C@H](NC(=O)c2ccc(Cc4ccccc4)cc2)CC3)CC1` returned a melting point of 191 to 192 °C.

Consider `CCC(=O)N1CCC(CC(=O)N2CCC([C@H]3c4ncc(Br)cc4CCc4cc(Cl)cc(Br)c43)CC2)CC1`, for which the melting point turned out to be 124 °C.

On to `CCOC(=O)CCNC(=O)NC1CCN(c2ccc(C=NNOC(=O)OCC)cc2)C1=O` (stereo not drawn), for which the melting point is 198 to 201 °C.

On to `COC(=O)c1ccc(/C=C(\C)c2ccc3c(c2)N(C)CCN3C)cc1`, for which the melting point lay within 91 to 93 °C.

As for `O=C(O)c1ccc2cc(OCCOc3ccc4c(CCO)c(C(=O)O)c(CCO)cc4c3)ccc2c1`, the melting point was 240 °C.

The molecule `N#CC1(CC(=O)O)CCCCC1` returned a melting point of 102 °C.

Consider `CSc1nc(C#N)c(C#N)nc1SC`, for which the melting point lay within 139 to 142 °C.

Take `c1ccc(Oc2ccc(Nc3ncnc4cnc(N5CCCCC5)nc34)cc2)cc1`: the melting point was found to be 175 °C.

`N=C(N)c1ccc(-c2ccc(-c3ccc(C(=N)N)cn3)o2)cc1`: the melting point was determined as 232 °C.

`CCCc1[nH]c2cc(C(=O)O)ccc2c1C(=O)COC` yielded a melting point greater than 250 °C.
